Reference: US20150368692A1, “ANALYSIS OF THE ESTERIFICATION LEVEL OF CEREBROSTEROL AS A TOOL FOR DIAGNOSIS AND/OR PROGNOSIS OF NEURODEGENERATION” (INBIOS S.R.L., priority 2013, published 2015)

Experiments:
[1] = test system: SH-SY5Y neuronal cells (neuroblastoma line), differentiated with retinoic acid; test: Survival of differentiated SH-SY5Y neuronal cells (Crystal Violet staining, absorbance at 595 nm); format: cell-based, human; settings: for cells survived after incubation: 5 h at 37° C./5% CO2 in DMEM and 0.5% HSA, then 16 h in fresh medium
Protocol: FIG. 2. Box A. Cells from the SH-SY5Y cell line were differentiated by incubation with 10 μM of retinoic acid in DMEM containing 0.5% foetal bovine serum, 1% Pen-Strep, 1% L-glutamine, 1% of a mixture of factors known as “N2 medium supplement”, essentially in accordance with a published procedure. The incubation was performed for 3 days at 37° C. in an atmosphere containing 5% CO2 (37° C./5% CO2). 7×10^3 cells were laid in each well of a microplate and then challenged with different concentrations of 24(S)OH—CNE and finally analysed in order to evaluate the survival of the cells, as described in Example 1. Each sample was analysed in three separate experiments. The data are expressed as means±SD (SD=standard deviation). Box B. 20 μM^3H-24(S)OH—CNE (300,000 dpm/mL) was incubated with 250 ng/mL purified LCAT and proteoliposomes containing 2 μM ApoA-I and 266 μM phosphatidylcholine (ApoA-I/PC) in DMEM with 0.5% HSA for various periods of time (from 1 to 6 h) at 37° C./5% CO2. After incubation, the esterified and non-esterified forms of oxysterol were extracted and analysed as described in Example 1. The level of esterification is indicated in terms of percentage of ^3H-24(S)OH-CE. Each sample was analysed in three separate experiments. The data are expressed as means±SD. Box C. Differentiated cells, as in the key of box A, were challenged with 20 μM ^3H-24(S)OH—CNE (300,000 dpm/mL) previously treated or untreated, as described for box B, with LCAT and ApoA-I/PC for 5 h. […] The culture medium was analysed in order to measure any unincorporated radioactive material, whereas the lysate was analysed in order to measure any incorporated radioactive material (expressed as % of the sum of incorporated radioactive material plus unincorporated radioactive material). […] Each sample was analysed in three separate experiments. The data are expressed as means±SD.
FIG. 3. […] Cellular survival after 5 h of incubation at 37° C./5% CO2, was evaluated as described in Example 1. Each sample was analysed in three separate experiments. The data are expressed as means±SD. […]

LCAT [2] = molecular target: T1, LCAT (Homo sapiens, UniProt P04180); test: Activity of LCAT in esterifying 3H-24(S)OH-CNE after oxidative treatment of the enzyme; format: biochemical; settings: 1 mM SIN-1 as oxidant, 20 min pre-incubation, stopped with antioxidant mixture; 2 μM ApoA-I/266 μM phosphatidylcholine; control 19.11±0.49; P=2.4×10^−3
T1 sequence (P04180 25-440): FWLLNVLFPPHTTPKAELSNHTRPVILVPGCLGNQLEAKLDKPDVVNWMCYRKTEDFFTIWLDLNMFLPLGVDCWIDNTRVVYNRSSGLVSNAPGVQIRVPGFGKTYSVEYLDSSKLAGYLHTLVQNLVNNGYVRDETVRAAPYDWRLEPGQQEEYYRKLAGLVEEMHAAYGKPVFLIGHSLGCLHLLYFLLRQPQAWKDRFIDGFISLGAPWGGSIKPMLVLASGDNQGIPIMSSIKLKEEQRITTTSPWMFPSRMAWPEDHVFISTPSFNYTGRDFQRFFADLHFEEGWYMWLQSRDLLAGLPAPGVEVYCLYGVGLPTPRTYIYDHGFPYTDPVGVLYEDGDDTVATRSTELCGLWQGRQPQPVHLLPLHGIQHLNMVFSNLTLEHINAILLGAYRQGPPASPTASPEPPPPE
Protocol: FIG. 5. An outline of the process to which three samples have been subjected is shown at the top. At the bottom, the components of each sample are shown in a table. […] Purified LCAT (250 ng/mL) was pre-incubated and added to the culture medium for cellular incubation (containing ApoA-I/PC) as indicated in the table at the bottom. 1 mM Asc was used to separate the pre-incubation from the incubation in the processes to which the samples were subjected. Each sample was analysed in three separate experiments. The data, expressed as means±SD, were analysed using the Graph Pad Prism 3 program (Graph Pad Software; San Diego, Calif., USA) in order to determine the significance of the difference of B from A and C (P=10^−5).
The purified enzyme LCAT was treated with an oxidative stress system and was then incubated with 24(S)OH—CNE in order to evaluate the efficiency of esterification of this oxysterol. […] The measurement of the absorbance of ABTS^[…]+ (at 414 nm) […], at 30° C., oxidative species which effectively oxidise ABTS and that the addition of 1 mM Asc to the mixture prevents or blocks oxidation of the target. […]

LCAT [3] = molecular target: T1, LCAT; test: Esterification of 3H-24(S)OH-CNE by purified LCAT with ApoA-I/PC proteoliposomes (TLC, liquid scintillation); format: biochemical; settings: 20 μM substrate, 250 ng/mL LCAT, proteoliposomes 2 μM ApoA-I/266 μM phosphatidylcholine, 5 h pre-incubation at 37° C./5% CO2
Protocol: FIG. 2. Box A. Cells from the SH-SY5Y cell line were differentiated by incubation with 10 μM of retinoic acid in DMEM containing 0.5% foetal bovine serum, 1% Pen-Strep, 1% L-glutamine, 1% of a mixture of factors known as “N2 medium supplement”, essentially in accordance with a published procedure. The incubation was performed for 3 days at 37° C. in an atmosphere containing 5% CO2 (37° C./5% CO2). 7×10^3 cells were laid in each well of a microplate and then challenged with different concentrations of 24(S)OH—CNE and finally analysed in order to evaluate the survival of the cells, as described in Example 1. Each sample was analysed in three separate experiments. The data are expressed as means±SD (SD=standard deviation). […] After incubation, the esterified and non-esterified forms of oxysterol were extracted and analysed as described in Example 1. […] Each sample was analysed in three separate experiments. The data are expressed as means±SD. […] The culture medium was analysed in order to measure any unincorporated radioactive material, whereas the lysate was analysed in order to measure any incorporated radioactive material (expressed as % of the sum of incorporated radioactive material plus unincorporated radioactive material). […] Each sample was analysed in three separate experiments. The data are expressed as means±SD. […]

[4] = test system: SH-SY5Y neuronal cells (neuroblastoma line), differentiated with retinoic acid; test: Incorporation of 3H-24(S)OH-CNE in differentiated SH-SY5Y cells and its esterification in the cells; format: cell-based, human; settings: 4 h of incubation; for 3H-24(S)OH-CNE incorporated in the cultured cells: 20 μM
Protocol: FIG. 2. Box A. Cells from the SH-SY5Y cell line were differentiated by incubation with 10 μM of retinoic acid in DMEM containing 0.5% foetal bovine serum, 1% Pen-Strep, 1% L-glutamine, 1% of a mixture of factors known as “N2 medium supplement”, essentially in accordance with a published procedure. The incubation was performed for 3 days at 37° C. in an atmosphere containing 5% CO2 (37° C./5% CO2). 7×10^3 cells were laid in each well of a microplate and then challenged with different concentrations of 24(S)OH—CNE and finally analysed in order to evaluate the survival of the cells, as described in Example 1. Each sample was analysed in three separate experiments. The data are expressed as means±SD (SD=standard deviation). Box B. 20 μM^3H-24(S)OH—CNE (300,000 dpm/mL) was incubated with 250 ng/mL purified LCAT and proteoliposomes containing 2 μM ApoA-I and 266 μM phosphatidylcholine (ApoA-I/PC) in DMEM with 0.5% HSA for various periods of time (from 1 to 6 h) at 37° C./5% CO2. After incubation, the esterified and non-esterified forms of oxysterol were extracted and analysed as described in Example 1. The level of esterification is indicated in terms of percentage of ^3H-24(S)OH-CE. Each sample was analysed in three separate experiments. The data are expressed as means±SD. Box C. Differentiated cells, as in the key of box A, were challenged with 20 μM ^3H-24(S)OH—CNE (300,000 dpm/mL) previously treated or untreated, as described for box B, with LCAT and ApoA-I/PC for 5 h. After various incubation times (from 1 to 6 h), the cells were separated from the culture medium and lysed. The culture medium was analysed in order to measure any unincorporated radioactive material, whereas the lysate was analysed in order to measure any incorporated radioactive material (expressed as % of the sum of incorporated radioactive material plus unincorporated radioactive material). […] Each sample was analysed in three separate experiments. The data are expressed as means±SD.
In Step 1B, 20 μM of ^3H-24(S)OH—CNE (300,000 dpm/mL) was pre-incubated in culture medium (DMEM containing 0.5% HSA) in the presence or absence of 250 ng/mL LCAT, purified in accordance with a published procedure, and proteoliposomes containing ApoA-I and phosphatidylcholine (ApoA-I/PC), prepared in accordance with a published procedure omitting cholesterol. […] In particular, the amount of esterified ^3H-24(S)OH—CNE (that is to say ^3H-24(S)OH-CE) was measured as detailed hereinafter. […] The stationary phase regions harbouring ^3H-24(S)OH-CE (Rf=0.70-0.75) and ^3H-24(S)OH—CNE (Rf=0.25-0.35) were separately removed and then analysed for the radioactivity content thereof by liquid scintillation using the Packard TriCarb 2100TR counter (Global Medical Instrumentation, Ramsey, Mich., USA). […]

[5] = medium pre-incubated in the presence of LCAT and proteoliposomes
[6] = medium pre-incubated without LCAT and proteoliposomes

In the case of `CC(C)[C@@H](O)CC[C@@H](C)[C@H]1CC[C@H]2[C@@H]3CC=C4C[C@@H](O)CC[C@]4(C)[C@H]3CC[C@]12C` [24(S)OH—CNE, cerebrosterol], the “cells survived after incubation” value ([1]; 10 μM 24(S)OH-CNE) is reported as 58% and the “cells survived after incubation” value ([1]; 20 μM 24(S)OH-CNE) is reported as 43%.

For `[NH-]c1c[n+](N2CCOCC2)no1` [SIN-1, 3-morpholino-sidnonimine], the “LCAT activity of esterification of 24(S)OH-CNE (mean±SD)” value (LCAT [2]) was 12.77 ± 0.78 nmol/h/mL.

For `[3H]C(C([3H])[C@@H](C)[C@H]1CC[C@H]2[C@@H]3CC=C4C[C@@H](O)CC[C@]4(C)[C@H]3CC[C@]12C)[C@H](O)C(C)C` (stereo partly drawn) [^3H-24(S)OH—CNE], the “3H-24(S)OH-CNE found esterified by LCAT (mean±SD)” value (LCAT [3]) was 49.3±2.8%, the “percentage of 3H-24(S)OH-CE in the cells” value [4, 5] was “approximately 50%” and the “3H-24(S)OH-CNE incorporated in the cultured cells” value [4, 5] was 6%. For the same molecule, the “percentage of 3H-24(S)OH-CE in the cells” value [4, 6] was “approximately 60%” and the “3H-24(S)OH-CNE incorporated in the cultured cells” value [4, 6] was 14%.

B1: LCAT: lecithin-cholesterol acyltransferase, E.C. 2.3.1.43; purified enzyme, used at 250 ng/mL (protein, UniProt P04180 25-440, looked up)
Phosphatidylcholine-sterol …: FWLLNVLFPPHTTPKAELSNHTRPVILVPGCLGNQLEAKLDKPDVVNWMCYRKTEDFFTIWLDLNMFLPLGVDCWIDNTRVVYNRSSGLVSNAPGVQIRVPGFGKTYSVEYLDSSKLAGYLHTLVQNLVNNGYVRDETVRAAPYDWRLEPGQQEEYYRKLAGLVEEMHAAYGKPVFLIGHSLGCLHLLYFLLRQPQAWKDRFIDGFISLGAPWGGSIKPMLVLASGDNQGIPIMSSIKLKEEQRITTTSPWMFPSRMAWPEDHVFISTPSFNYTGRDFQRFFADLHFEEGWYMWLQSRDLLAGLPAPGVEVYCLYGVGLPTPRTYIYDHGFPYTDPVGVLYEDGDDTVATRSTELCGLWQGRQPQPVHLLPLHGIQHLNMVFSNLTLEHINAILLGAYRQGPPASPTASPEPPPPE
In the case of B1, the “effect of LCAT treatment of the culture medium on the toxic effect of 24(S)OH-CNE on the cells” value ([1]; 20 μM 24(S)OH-CNE pre-incubated 5 h with LCAT and proteoliposomes, cells 5 h, then 16 h fresh medium, versus control treatment without LCAT) is reported as “significantly reduced the toxic effect”.
